According to patent US10479780B2, “Aminopyrazole derivatives” (Chugai Seiyaku Kabushiki Kaisha, priority 2015, dated 2019):

Legend:
Type in all cases: biochemical
[1] = molecular target: T1, human Src enzyme (Homo sapiens, UniProt P12931); assay: Src enzyme inhibitory activity (time-resolved fluorometry, biotinylated peptide phosphorylation); details: read-out: SRC_IC50
T1 construct: purchased Carna Biosciences, Inc. 08-173
In short: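 Compounds were tested for blocking tyrosine phosphorylation of a biotinylated peptide substrate by recombinant human Src. Phosphorylated product was quantified by time-resolved fluorometry using europium cryptate and XL665 conjugates, and IC50 was calculated against the compound-free control.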

[2] = molecular target: T2, human Lck enzyme (Homo sapiens, UniProt P06239); assay: Lck enzyme inhibitory activity (time-resolved fluorometry, biotinylated peptide phosphorylation); details: read-out: LCK_IC50
T2 construct: purchased Carna Biosciences, Inc. 08-170
In short: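 Readout pairs a europium cryptate-labelled anti-phosphotyrosine antibody with XL665-streptavidin, measured by time-resolved fluorescence. IC50 derived from percent inhibition against untreated controls.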

[3] = molecular target: T3, human Yes1 enzyme (Homo sapiens, UniProt P07947); assay: Yes1 enzyme inhibitory activity (time-resolved fluorometry, biotinylated peptide phosphorylation); details: read-out: YES_IC50
T3 construct: made in house
In short: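 Inhibition was expressed against a compound-free control to give IC50, using TR-FRET read-out (Eu-cryptate anti-pTyr antibody, streptavidin-XL665).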

T1 sequence (P12931 whole entry): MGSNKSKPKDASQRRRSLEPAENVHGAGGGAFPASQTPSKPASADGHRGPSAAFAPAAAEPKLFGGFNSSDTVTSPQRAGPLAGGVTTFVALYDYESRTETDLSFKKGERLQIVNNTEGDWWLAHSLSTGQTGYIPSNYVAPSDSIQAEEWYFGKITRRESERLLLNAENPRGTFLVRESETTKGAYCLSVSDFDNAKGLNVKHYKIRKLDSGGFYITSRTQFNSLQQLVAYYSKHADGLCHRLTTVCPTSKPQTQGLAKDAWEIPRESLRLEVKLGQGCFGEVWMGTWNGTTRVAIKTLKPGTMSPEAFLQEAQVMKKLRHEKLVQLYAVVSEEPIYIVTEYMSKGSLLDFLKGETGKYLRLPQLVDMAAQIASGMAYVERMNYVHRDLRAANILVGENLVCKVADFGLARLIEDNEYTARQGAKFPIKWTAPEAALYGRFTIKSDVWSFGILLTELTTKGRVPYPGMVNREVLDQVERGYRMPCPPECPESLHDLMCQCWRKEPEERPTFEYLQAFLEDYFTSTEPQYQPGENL
T3 sequence (P07947 whole entry): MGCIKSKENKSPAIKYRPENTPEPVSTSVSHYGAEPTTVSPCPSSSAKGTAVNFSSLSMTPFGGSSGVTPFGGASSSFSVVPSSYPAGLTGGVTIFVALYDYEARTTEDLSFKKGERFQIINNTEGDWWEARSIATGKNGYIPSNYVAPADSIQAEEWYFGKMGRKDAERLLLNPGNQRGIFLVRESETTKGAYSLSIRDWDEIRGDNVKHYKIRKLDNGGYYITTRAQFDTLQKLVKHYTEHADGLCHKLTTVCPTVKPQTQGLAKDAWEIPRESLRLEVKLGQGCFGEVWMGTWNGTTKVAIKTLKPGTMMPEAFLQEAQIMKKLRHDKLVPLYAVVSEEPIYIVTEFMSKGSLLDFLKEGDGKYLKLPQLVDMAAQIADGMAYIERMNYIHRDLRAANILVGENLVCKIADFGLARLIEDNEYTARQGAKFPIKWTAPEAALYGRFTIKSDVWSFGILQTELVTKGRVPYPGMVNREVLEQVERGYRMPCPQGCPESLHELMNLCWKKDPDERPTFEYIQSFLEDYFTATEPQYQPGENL
T2 sequence (P06239 whole entry): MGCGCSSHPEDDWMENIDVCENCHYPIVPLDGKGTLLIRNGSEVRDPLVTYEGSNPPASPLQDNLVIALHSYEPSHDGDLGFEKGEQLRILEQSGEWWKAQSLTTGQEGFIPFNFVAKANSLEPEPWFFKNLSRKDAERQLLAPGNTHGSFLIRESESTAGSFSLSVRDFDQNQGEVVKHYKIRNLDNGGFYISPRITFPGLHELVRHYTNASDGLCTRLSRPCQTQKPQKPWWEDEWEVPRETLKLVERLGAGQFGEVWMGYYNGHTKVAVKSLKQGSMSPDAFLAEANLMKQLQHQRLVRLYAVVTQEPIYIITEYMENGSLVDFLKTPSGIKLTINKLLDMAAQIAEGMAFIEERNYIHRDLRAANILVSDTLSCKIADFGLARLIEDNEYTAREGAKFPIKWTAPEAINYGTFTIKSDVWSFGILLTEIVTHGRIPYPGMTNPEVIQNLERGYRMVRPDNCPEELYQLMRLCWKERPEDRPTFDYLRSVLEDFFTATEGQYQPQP

IC50 [1] [nM]	IC50 [2] [nM]	IC50 [3] [nM]	SMILES
85	35	0.68	Nc1c(C(=O)c2cc3cc(F)c(NS(=O)(=O)CCCF)cc3[nH]2)cnn1-c1ccc(Oc2ncccc2F)cc1F [Example 5-1-035, N-[2-[5-amino-1-[2-fluoro-4-(3-fluoropyridin-2-yl)oxyphenyl]pyrazole-4-carbonyl]-5-fluoro-1H-indol-6-yl]-3-fluoropropane-1-sulfonamide]
140	65	1.5	Nc1c(C(=O)c2cc3cc(F)c(NS(=O)(=O)CCCF)cc3[nH]2)cnn1-c1ccc(Oc2ncccc2Cl)cc1F [Example 5-1-036, N-[2-[5-amino-1-[4-(3-chloropyridin-2-yl)oxy-2-fluorophenyl]pyrazole-4-carbonyl]-5-fluoro-1H-indol-6-yl]-3-fluoropropane-1-sulfonamide]
45	17	0.91	Nc1c(C(=O)c2cc3cc(F)c(NS(=O)(=O)CCCF)cc3[nH]2)cnn1-c1ccc(Oc2ncccc2Cl)cc1Cl [Example 5-1-037, N-[2-[5-amino-1-[2-chloro-4-(3-chloropyridin-2-yl)oxyphenyl]pyrazole-4-carbonyl]-5-fluoro-1H-indol-6-yl]-3-fluoropropane-1-sulfonamide]
270	66	16	Cc1cc(Oc2cc(F)cc(F)c2)ncc1-n1ncc(C(=O)c2cc3cc(F)c(NS(C)(=O)=O)cc3[nH]2)c1N [Example 5-1-038, N-[2-[5-amino-1-[6-(3,5-difluorophenoxy)-4-methylpyridin-3-yl]pyrazole-4-carbonyl]-5-fluoro-1H-indol-6-yl]methanesulfonamide]
6100	2000	120	Cc1cc(-n2ncc(C(=O)c3cc4cc(F)c(NS(C)(=O)=O)cc4[nH]3)c2N)cnc1Oc1ccccc1F [Example 5-1-039, N-[2-[5-amino-1-[6-(2-fluorophenoxy)-5-methylpyridin-3-yl]pyrazole-4-carbonyl]-5-fluoro-1H-indol-6-yl]methanesulfonamide]
280	88	13	Cc1cc(Oc2ccccc2F)cc(C)c1-n1ncc(C(=O)c2cc3cc(F)c(NS(=O)(=O)CCCF)cc3[nH]2)c1N [Example 5-1-040, N-[2-[5-amino-1-[4-(2-fluorophenoxy)-2,6-dimethylphenyl]pyrazole-4-carbonyl]-5-fluoro-1H-indol-6-yl]-3-fluoropropane-1-sulfonamide]
160	110	7.9	Cc1cc(Oc2ccc(F)cc2)ncc1-n1ncc(C(=O)c2cc3cc(F)c(NS(=O)(=O)C4CC4)cc3[nH]2)c1N [Example 5-1-046, N-[2-[5-amino-1-[6-(4-fluorophenoxy)-4-methylpyridin-3-yl]pyrazole-4-carbonyl]-5-fluoro-1H-indol-6-yl]cyclopropanesulfonamide]
15	5.1	0.87	Cc1ccccc1Oc1cc(C)c(-n2ncc(C(=O)c3cc4cc(NS(C)(=O)=O)c(F)cc4[nH]3)c2N)cn1 [Example 5-1-047, N-[2-[5-amino-1-[4-methyl-6-(2-methylphenoxy)pyridin-3-yl]pyrazole-4-carbonyl]-6-fluoro-1H-indol-5-yl] methanesulfonamide]
110	6.4	1.6	Cc1cc(Oc2cccc(Cl)c2)cc(F)c1-n1ncc(C(=O)c2cc3cc(NS(C)(=O)=O)c(F)cc3[nH]2)c1N [Example 5-1-048, N-[2-[5-amino-1-[4-(3-chlorophenoxy)-2-fluoro-6-methylphenyl]pyrazole-4-carbonyl]-6-fluoro-1H-indol-5-yl]methanesulfonamide]
70	3.9	1.5	Cc1cc(Oc2cccc(F)c2F)ncc1-n1ncc(C(=O)c2cc3cc(NS(C)(=O)=O)c(F)cc3[nH]2)c1N [Example 5-1-049, N-[2-[5-amino-1-[6-(2,3-difluorophenoxy)-4-methylpyridin-3-yl]pyrazole-4-carbonyl]-6-fluoro-1H-indol-5-yl]methanesulfonamide]
23	1.8	0.77	Cc1cc(Oc2ccccc2Cl)ncc1-n1ncc(C(=O)c2cc3cc(NS(C)(=O)=O)c(F)cc3[nH]2)c1N [Example 5-1-050, N-[2-[5-amino-1-[6-(2-chlorophenoxy)-4-methylpyridin-3-yl]pyrazole-4-carbonyl]-6-fluoro-1H-indol-5-yl]methanesulfonamide]
320	82	60	Cc1cc(Oc2ccccc2Cl)nc(C)c1-n1ncc(C(=O)c2cc3cc(F)c(NS(C)(=O)=O)cc3[nH]2)c1N [Example 5-1-051, N-[2-[5-amino-1-[6-(2-chlorophenoxy)-2,4-dimethylpyridin-3-yl]pyrazole-4-carbonyl]-5-fluoro-1H-indol-6-yl]methanesulfonamide]
810	250	120	Cc1cc(Oc2cccc(Cl)c2)nc(C)c1-n1ncc(C(=O)c2cc3cc(F)c(NS(C)(=O)=O)cc3[nH]2)c1N [Example 5-1-052, N-[2-[5-amino-1-[6-(3-chlorophenoxy)-2,4-dimethylpyridin-3-yl]pyrazole-4-carbonyl]-5-fluoro-1H-indol-6-yl]methanesulfonamide]
430	97	65	Cc1cc(Oc2cccc(F)c2F)nc(C)c1-n1ncc(C(=O)c2cc3cc(F)c(NS(C)(=O)=O)cc3[nH]2)c1N [Example 5-1-053, N-[2-[5-amino-1-[6-(2,3-difluorophenoxy)-2,4-dimethylpyridin-3-yl]pyrazole-4-carbonyl]-5-fluoro-1H-indol-6-yl]methanesulfonamide]
1000	350	150	Cc1cc(Oc2cc(F)cc(F)c2)nc(C)c1-n1ncc(C(=O)c2cc3cc(F)c(NS(C)(=O)=O)cc3[nH]2)c1N [Example 5-1-054, N-[2-[5-amino-1-[6-(3,5-difluorophenoxy)-2,4-dimethylpyridin-3-yl]pyrazole-4-carbonyl]-5-fluoro-1H-indol-6-yl]methanesulfonamide]
190	94	16	Cc1cc(Oc2cc(Cl)ccc2Cl)ncc1-n1ncc(C(=O)c2cc3cc(F)c(NS(C)(=O)=O)cc3[nH]2)c1N [Example 5-1-055, N-[2-[5-amino-1-[6-(2,5-dichlorophenoxy)-4-methylpyridin-3-yl]pyrazole-4-carbonyl]-5-fluoro-1H-indol-6-yl]methanesulfonamide]
76	24	1.7	Cc1cc(Oc2ccccc2F)ncc1-n1ncc(C(=O)c2cc3cc(F)c(NS(=O)(=O)CC(=O)NC(C)C)cc3[nH]2)c1N [Example 5-1-056, 2-[[2-[5-amino-1-[6-(2-fluorophenoxy)-4-methylpyridin-3-yl]pyrazole-4-carbonyl]-5-fluoro-1H-indol-6-yl]sulfamoyl]-N-propan-2-ylacetamide]
150	31	2	Cc1cc2cc(C(=O)c3cnn(-c4cnc(Oc5ccccc5F)cc4C)c3N)[nH]c2cc1NS(=O)(=O)NC1CCOCC1 [Example 5-1-057, [5-amino-1-[6-(2-fluorophenoxy)-4-methylpyridin-3-yl]pyrazol-4-yl]-[5-methyl-6-(oxan-4-ylsulfamoylamino)-1H-indol-2-yl] methanone]
58	25	1.6	Cc1cc2cc(C(=O)c3cnn(-c4cnc(Oc5ccccc5F)cc4C)c3N)[nH]c2cc1NS(=O)(=O)CC(=O)NC(C)C [Example 5-1-058, 2-[[2-[5-amino-1-[6-(2-fluorophenoxy)-4-methylpyridin-3-yl]pyrazole-4-carbonyl]-5-methyl-1H-indol-6-yl]sulfamoyl]-N-propan-2-ylacetamide]
130	33	3.4	Cc1cc(Oc2cccc(F)c2)ncc1-n1ncc(C(=O)c2cc3cc(F)c(NS(=O)(=O)CCCF)cc3[nH]2)c1N [Example 5-1-059, N-[2-[5-amino-1-[6-(3-fluorophenoxy)-4-methylpyridin-3-yl]pyrazole-4-carbonyl]-5-fluoro-1H-indol-6-yl]-3-fluoropropane-1-sulfonamide]
390	42	82	Cc1cc(Oc2ccccc2F)nc(C)c1-n1ncc(C(=O)c2cc3cc(F)c(NS(C)(=O)=O)cc3[nH]2)c1N [Example 5-1-060, N-[2-[5-amino-1-[6-(2-fluorophenoxy)-2,4-dimethylpyridin-3-yl]pyrazole-4-carbonyl]-5-fluoro-1H-indol-6-yl]methanesulfonamide]
12	7	0.96	Cc1cc(Oc2ccccc2F)ccc1-n1ncc(C(=O)c2cc3cc(O)c(NS(C)(=O)=O)cc3[nH]2)c1N [Example 5-1-061, N-[2-[5-amino-1-[4-(2-fluorophenoxy)-2-methylphenyl]pyrazole-4-carbonyl]-5-hydroxy-1H-indol-6-yl]methanesulfonamide]
48	13	2.4	Cc1cc2cc(C(=O)c3cnn(-c4ccc(Oc5ncccc5Cl)cc4Cl)c3N)[nH]c2cc1N1CCCS1(=O)=O [Example 5-1-062, [5-amino-1-[2-chloro-4-(3-chloropyridin-2-yl)oxyphenyl]pyrazol-4-yl]-[6-(1,1-dioxo-1,2-thiazolidin-2-yl)-5-methyl-1H-indol-2-yl] methanone]
